From patent US11578056B2, “Solid forms comprising (S)-2-(2,6-dioxopiperidin-3-yl)-4-((2-fluoro-4-((3-morpholinoazetidin-1-yl)methyl)benzyl)amino)isoindoline-1,3-dione and salts thereof, and compositions comprising and methods of using the same” (Celgene Corporation, priority 2019, dated 2023)

How the values were obtained:
Assay type in all cases: physicochemical
[1] = Solid state photostress study under 2 times ICH conditions
Description: (§1) Solid State Stability: Solid state stability of Form A of a hydrochloride salt of Compound 1 was evaluated using Accelerated Stability Assessment Program (ASAP). Forced degradation storage conditions were used between 60-80° C. and 0-80% RH for up to 2 weeks. A photostress study under 2 times ICH conditions was also conducted in the solid state. The solid samples were analyzed for both chemical and chiral stability. At the end of the study, the crystalline form of the compound was verified by XRPD.

[2] = Shear sensitivity (compression, XRPD); conditions: compressed under 700 and 1100 lbs for 1 minute
Description: Shear Sensitivity: Form A of a hydrochloride salt of Compound 1 was compressed under 700 and 1100 lbs for 1 minute and analyzed by XRPD.

[3] = Dynamic vapor sorption (DVS) hygroscopicity
Description: Dynamic vapor sorption (DVS) was measured using DVS advantage (Surface Measurement Systems Ltd). The samples were tested under isotherm (25° C.) at a targeted RH of 0 to 95% full cycle in step mode. For an isotherm test, the chamber temperature is maintained by a water bath at constant 25.0±1.0° C. The relative humidity in the sample chamber is generated by combining different flows of wet and dry nitrogen with variable flow rates. The analysis was performed in 10% RH increments. Sampling rate is 1 sec save data rate is 20 sec. The dm/dt (%) value was set at 0.001 with a dm/dt window of 5 min., a minimum stability duration time of 10 min, and a maximum stage time of 180 min. The sample's equilibrium weight corresponding to each RH was recorded. A sorption isotherm is obtained by plotting equilibrium moisture content versus RH.

[4] = Long term solid state stability (double LDPE bags in HDPE container)
Description: Long Term Solid State Stability: Form A of a hydrochloride salt of Compound 1 (packaged in double LDPE bags in HDPE container) was stored up to 3 months at 25° C./60% RH, 30° C./65% RH, and 40° C./75% RH storage conditions. […] Therefore, a re-test period of 12 months is proposed when stored at or below 25° C.

[5] = Solid state stability, Accelerated Stability Assessment Program (ASAP)
Description: as §1

For Cl.O=C1CC[C@H](N2C(=O)c3cccc(NCc4ccc(CN5CC(N6CCOCC6)C5)cc4F)c3C2=O)C(=O)N1, the “LC Purity (%)” value ([1]; 2x ICH Photo Stressed) was 94.80%, the R-isomer % area ([1]; 2x ICH Photo Stressed) was 1.17 % area and the “LC Purity (%)” value ([1]; Photo Stressed Control) was 98.45%. For the same molecule, the R-isomer % area ([1]; Photo Stressed Control) was 1.27 % area, the changes in assay ([1]; photostability conditions (2 times ICH), solid state) was less than 4% and the “solid form after compression (XRPD)” value [2] was “remained the same”. For the same molecule, the “solid form after DVS” value ([3]; after DVS) was “remained as Form A”, the “hygroscopicity (DVS)” value ([3]; below 90% RH) was “moderate hygroscopic” and the “water uptake expressed as moles of water (DVS)” value ([3]; corresponding to the about 3.0% w/w uptake) was “about 1 mole”. The “sorption/desorption reversibility (DVS)” value ([3]; during two full cycles) was “almost reversible”, the “moisture picked up (DVS)” value ([3]; from dry up to 90% RH) was roughly 2.9 % wt and the “mass increase (DVS)” value ([3]; increase in RH from about 0% to about 95%) was “about 3.0%”. The “water uptake (DVS)” value ([3]; sorption at all humidities, FIG. 7) was “about 3.0 % w/w”, the “Appearance (Yellow powder)” value ([4]; 25° C./60% RH, 0 Month) was “Conforms” and the “Chiral Purity (%)” value ([4]; 25° C./60% RH, 0 Month) was 96.0%. For the same molecule, the “Chromatographic Purity (%)” value ([4]; 25° C./60% RH, 0 Month) was 98.6%, the “Solid forms (XRPD), consistent with Form A” value (“Solid forms (XRPD)” for short) ([4]; 25° C./60% RH, 0 Month) was “Conforms” and the “Total Related Impurities (%)” value ([4]; 25° C./60% RH, 0 Month) was 1.41%. For the same molecule, the “Water (%)” value ([4]; 25° C./60% RH, 0 Month) was 1.4%, the “Appearance (Yellow powder)” value ([4]; 25° C./60% RH, 1 Month) was “Conforms” and the “Chiral Purity (%)” value ([4]; 25° C./60% RH, 1 Month) was 95.7%. For the same molecule, the “Chromatographic Purity (%)” value ([4]; 25° C./60% RH, 1 Month) was 98.5%, the “Solid forms (XRPD)” value ([4]; 25° C./60% RH, 1 Month) was “Conforms” and the “Total Related Impurities (%)” value ([4]; 25° C./60% RH, 1 Month) was 1.50%. The “Water (%)” value ([4]; 25° C./60% RH, 1 Month) was 1.7%, the “Appearance (Yellow powder)” value ([4]; 25° C./60% RH, 3 Month) was “Conforms” and the “Chiral Purity (%)” value ([4]; 25° C./60% RH, 3 Month) was 95.7%. For the same molecule, the “Chromatographic Purity (%)” value ([4]; 25° C./60% RH, 3 Month) was 98.5%, the “Solid forms (XRPD)” value ([4]; 25° C./60% RH, 3 Month) was “Conforms” and the “Total Related Impurities (%)” value ([4]; 25° C./60% RH, 3 Month) was 1.55%. The “Water (%)” value ([4]; 25° C./60% RH, 3 Month) was 1.9%, the “long term solid state stability” value ([4]; 25° C./60% RH, 30° C./65% RH and 40° C./75% RH for 3 months, double LDPE bags in HDPE container) was “demonstrate stability” and the “Appearance (Yellow powder)” value ([4]; 30° C./65% RH, 0 Month) was “Conforms”. For the same molecule, the “Chiral Purity (%)” value ([4]; 30° C./65% RH, 0 Month) was 96.0%, the “Chromatographic Purity (%)” value ([4]; 30° C./65% RH, 0 Month) was 98.6% and the “Total Related Impurities (%)” value ([4]; 30° C./65% RH, 0 Month) was 1.41%. For the same molecule, the “Water (%)” value ([4]; 30° C./65% RH, 0 Month) was 1.4%, the “Appearance (Yellow powder)” value ([4]; 30° C./65% RH, 1 Month) was “Conforms” and the “Chiral Purity (%)” value ([4]; 30° C./65% RH, 1 Month) was 94.5%. For the same molecule, the “Chromatographic Purity (%)” value ([4]; 30° C./65% RH, 1 Month) was 98.4%, the “Total Related Impurities (%)” value ([4]; 30° C./65% RH, 1 Month) was 1.56% and the “Water (%)” value ([4]; 30° C./65% RH, 1 Month) was 1.9%. The “Appearance (Yellow powder)” value ([4]; 30° C./65% RH, 3 Month) was “Conforms”, the “Chiral Purity (%)” value ([4]; 30° C./65% RH, 3 Month) was 95.8% and the “Chromatographic Purity (%)” value ([4]; 30° C./65% RH, 3 Month) was 98.4%. For the same molecule, the “Total Related Impurities (%)” value ([4]; 30° C./65% RH, 3 Month) was 1.63%, the “Water (%)” value ([4]; 30° C./65% RH, 3 Month) was 2.0% and the “Appearance (Yellow powder)” value ([4]; 40° C./75% RH, 0 Month) was “Conforms”. For the same molecule, the “Chiral Purity (%)” value ([4]; 40° C./75% RH, 0 Month) was 96.0%, the “Chromatographic Purity (%)” value ([4]; 40° C./75% RH, 0 Month) was 98.6% and the “Solid forms (XRPD)” value ([4]; 40° C./75% RH, 0 Month) was “Conforms”. For the same molecule, the “Total Related Impurities (%)” value ([4]; 40° C./75% RH, 0 Month) was 1.41%, the “Water (%)” value ([4]; 40° C./75% RH, 0 Month) was 1.4% and the “Appearance (Yellow powder)” value ([4]; 40° C./75% RH, 1 Month) was “Conforms”. For the same molecule, the “Chiral Purity (%)” value ([4]; 40° C./75% RH, 1 Month) was 96.0%, the “Chromatographic Purity (%)” value ([4]; 40° C./75% RH, 1 Month) was 98.5% and the “Solid forms (XRPD)” value ([4]; 40° C./75% RH, 1 Month) was “Conforms”. The “Total Related Impurities (%)” value ([4]; 40° C./75% RH, 1 Month) was 1.52%, the “Water (%)” value ([4]; 40° C./75% RH, 1 Month) was 1.8% and the “Appearance (Yellow powder)” value ([4]; 40° C./75% RH, 3 Month) was “Conforms”. The “Chiral Purity (%)” value ([4]; 40° C./75% RH, 3 Month) was 96.1%, the “Chromatographic Purity (%)” value ([4]; 40° C./75% RH, 3 Month) was 98.4% and the “Solid forms (XRPD)” value ([4]; 40° C./75% RH, 3 Month) was “Conforms”. The “Total Related Impurities (%)” value ([4]; 40° C./75% RH, 3 Month) was 1.60%, the “Water (%)” value ([4]; 40° C./75% RH, 3 Month) was 2.0% and the proposed re-test period ([4]; when stored at or below 25° C.) was 12 months. For the same molecule, the changes in assay ([5]; 60-80° C., 0-80% RH, up to 2 weeks, except 80° C./0% RH after 1 week and 2 weeks) was less than 5%, the “LC Purity (%)” value ([5]; 60° C., 50% RH, 7 days) was 98.51% and the R-isomer % area ([5]; 60° C., 50% RH, 7 days) was 1.26 % area. For the same molecule, the “LC Purity (%)” value ([5]; 60° C., 50% RH, 14 days) was 98.47%, the R-isomer % area ([5]; 60° C., 50% RH, 14 days) was 1.28 % area and the “LC Purity (%)” value ([5]; 70° C., 20% RH, 7 days) was 98.28%. The R-isomer % area ([5]; 70° C., 20% RH, 7 days) was 1.26 % area, the “LC Purity (%)” value ([5]; 70° C., 20% RH, 14 days) was 98.50% and the R-isomer % area ([5]; 70° C., 20% RH, 14 days) was 1.26 % area. The “LC Purity (%)” value ([5]; 70° C., 75% RH, 7 days) was 98.48%, the R-isomer % area ([5]; 70° C., 75% RH, 7 days) was 1.34 % area and the “LC Purity (%)” value ([5]; 70° C., 75% RH, 14 days) was 98.24%. For the same molecule, the R-isomer % area ([5]; 70° C., 75% RH, 14 days) was 1.49 % area, the “LC Purity (%)” value ([5]; 80° C., 0% RH, 7 days) was 91.18% and the R-isomer % area ([5]; 80° C., 0% RH, 7 days) was 1.77 % area. For the same molecule, the “LC Purity (%)” value ([5]; 80° C., 0% RH, 14 days) was 86.98%, the R-isomer % area ([5]; 80° C., 0% RH, 14 days) was 1.28 % area and the “LC Purity (%)” value ([5]; 80° C., 40% RH, 7 days) was 98.32%. For the same molecule, the R-isomer % area ([5]; 80° C., 40% RH, 7 days) was 1.77 % area, the “LC Purity (%)” value ([5]; 80° C., 40% RH, 14 days) was 98.29% and the R-isomer % area ([5]; 80° C., 40% RH, 14 days) was 1.30 % area. For the same molecule, the “LC Purity (%)” value ([5]; 80° C., 70% RH, 7 days) was 98.43%, the R-isomer % area ([5]; 80° C., 70% RH, 7 days) was 1.36 % area and the “LC Purity (%)” value ([5]; 80° C., 70% RH, 14 days) was 98.21%. For the same molecule, the R-isomer % area ([5]; 80° C., 70% RH, 14 days) was 1.45 % area, the “change of crystalline form (XRPD)” value ([5]; 80° C./70% RH after 10 days vs control) was “No change of crystalline form” and the ASAP stability conclusion ([5]; ASAP stability results) was “can be considered stable”. The “LC Purity (%)” value ([5]; Heat/Humidity Control) was 98.44%, the R-isomer % area ([5]; Heat/Humidity Control) was 1.26 % area and the “maximum change in chiral purity” value ([5]; across all conditions, maximum under high humidity conditions) was no more than 0.2%.
